Measurements from US9150555B2, “Amide derivative and use thereof” (Mitsubishi Tanabe Pharma Corporation, priority 2010, dated 2015).
Counter-ions that a name gives are not always drawn.

Tests used:
[1] = tested on: IL-17 production of mouse spleen cells stimulated by rm-IL-23; assay: Production of IL-17 induced when mouse spleen cells were stimulated by recombinant mouse interleukin-23 (rm-IL-23); type: cell-based; details: Mus musculus, 72 h, inhibition of IL-17 production, DBA/1J mouse spleen cells, rm-IL-23 1 nmol/L, ELISA
Protocol: Effect on Production of IL-17 Induced when Mouse Spleen Cells were Stimulated by Recombinant Mouse Interleukin-23 (rm-IL-23)
An RPMI1640 (Sigma-Aldrich) was used as a medium, to which penicillin G potassium (50 units/mL; Gibco), streptomycin (50 μg/mL; Gibco) and 2-mercaptoethanol (50 μmol/l; Sigma-Aldrich) were added, and then 10% of fetal calf serum (FCS; Cell Culture Technology) inactivated at 56° C. for 30 minutes was added and used in the Test. The test compound was dissolved in dimethylsulfoxide and diluted with 10% FCS-containing RPMI1640 medium to a desired concentration and used in the test. The spleens were aseptically taken out from 6-7 week-old male DBA/1J mice (Charles River Japan, Inc.) and a single cell suspension of spleen cells was prepared and hemolyzed by hypotonic treatment with a mixture of 0.83% aqueous solution of ammonium chloride and Tris-HCl buffer of pH 7.65 (9:1). A cell suspension prepared by 10% FCS-containing RPMI1640 medium was added to flat-bottomed 96 well microtestplate at 2×10^5 cells/well. Test compounds and rm-IL-23 (R&D systems) were diluted with a medium to 1 to 1,000 nmol/L, and 1 nmol/L of the final concentration respectively, which were added and cultured at 37° C., 5% carbon dioxide and 95% air for 72 hours. After completion of the culture, culture supernatant was sampled and an amount of IL-17 production was determined by ELISA method. After sampling the supernatant, WST-8 (Seikagaku Corporation) was added at 10 μl/well and cultured at 37° C., 5% carbon dioxide and 95% air for 4 hours. Then, absorbance (O.D.: Optical Density) at 450 nm was measured by a microplate reader and the value was adopted as an index of cell survivability. An inhibition rate (%) was calculated according to the following formula on the basis of an average of an amount of IL-17 production and a O.D. values of the well containing a test compound of each concentration.
Based on the dose-response curve obtained by plotting the inhibition rate in the longitudinal axis and concentration in the horizontal axis, the concentration of the compound which inhibits the level to 50% of the value of the control group (IC50; nmol/L) was determined by linear regression analysis. The results was shown in the next Table 1

[2] = biological target: hERG (Homo sapiens, UniProt Q12809); assay: Effects on hERG current (whole-cell clamping); details: human, HEK 293 cells that express hERG, pH 7.4, hERG inhibition rate (%) (1 μM), 1 μM; tail peak current; hERG-expressed HEK 293 cells
Chain of hERG (Q12809 whole entry): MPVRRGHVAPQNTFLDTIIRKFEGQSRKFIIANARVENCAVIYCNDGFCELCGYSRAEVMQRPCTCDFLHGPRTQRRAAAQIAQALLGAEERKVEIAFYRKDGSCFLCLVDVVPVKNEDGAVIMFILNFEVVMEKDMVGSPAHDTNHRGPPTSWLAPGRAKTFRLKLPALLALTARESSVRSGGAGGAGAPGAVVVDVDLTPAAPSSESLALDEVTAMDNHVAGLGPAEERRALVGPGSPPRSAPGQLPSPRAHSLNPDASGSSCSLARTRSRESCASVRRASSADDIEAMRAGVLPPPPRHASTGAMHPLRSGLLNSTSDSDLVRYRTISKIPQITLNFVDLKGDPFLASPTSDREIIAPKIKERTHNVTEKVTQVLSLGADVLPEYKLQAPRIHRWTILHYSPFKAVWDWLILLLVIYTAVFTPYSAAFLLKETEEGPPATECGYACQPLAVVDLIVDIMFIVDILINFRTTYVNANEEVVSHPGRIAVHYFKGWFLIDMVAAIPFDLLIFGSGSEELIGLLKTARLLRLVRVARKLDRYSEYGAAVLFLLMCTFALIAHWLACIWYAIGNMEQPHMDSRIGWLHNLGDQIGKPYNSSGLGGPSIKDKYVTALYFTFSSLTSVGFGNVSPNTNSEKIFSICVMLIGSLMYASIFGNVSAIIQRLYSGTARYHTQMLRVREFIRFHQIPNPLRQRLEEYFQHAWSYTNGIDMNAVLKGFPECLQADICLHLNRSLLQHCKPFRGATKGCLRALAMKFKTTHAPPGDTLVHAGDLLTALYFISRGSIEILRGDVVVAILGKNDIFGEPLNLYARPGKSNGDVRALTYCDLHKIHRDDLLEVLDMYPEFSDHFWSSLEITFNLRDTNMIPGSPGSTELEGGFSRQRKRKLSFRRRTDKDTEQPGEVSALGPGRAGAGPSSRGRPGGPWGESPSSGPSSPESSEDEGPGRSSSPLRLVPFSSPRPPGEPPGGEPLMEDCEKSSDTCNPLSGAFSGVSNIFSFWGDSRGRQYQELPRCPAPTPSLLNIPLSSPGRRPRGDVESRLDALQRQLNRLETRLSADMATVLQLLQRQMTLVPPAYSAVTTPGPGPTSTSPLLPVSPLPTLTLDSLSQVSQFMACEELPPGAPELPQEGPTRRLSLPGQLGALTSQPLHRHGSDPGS

SMILES | IC50 [1] [nM] | inhibition at 1 µM [2] [%]
Cc1cc(NC(=O)c2cnn(-c3ccc(C4CC4)cn3)c2C)cnc1C1=CCN(C2CCOC2C)CC1 (stereo not drawn) [Example D191] | 58.4 | 47.6
Cc1cc(NC(=O)c2cnn(-c3ncc(C(F)(F)F)cc3F)c2C)cnc1C1CCC2(CC1)OCCO2 [Example D196, N-[6-(1,4-Dioxaspiro[4.5]dec-8-yl)-5-methylpyridin-3-yl]-1-[3-fluoro-5-(trifluoromethyl)pyridin-2-yl]-5-methyl-1H-pyrazole-4-carboxamide] | 54.6 | 13.6
COc1cc(C(F)(F)F)cnc1-n1ncc(C(=O)Nc2cnc(C3CCC4(CC3)OCCO4)c(C)c2)c1C [Example D197] | 123 | 0.8
Cc1cc(NC(=O)c2cnn(-c3ccc(C(C)C)cn3)c2C)cnc1C1=CCC(N2CCOCC2)CC1 (stereo not drawn) [Example D200] | 58.4 | 47.6
Cc1cc(NC(=O)c2cnn(-c3ccccc3)c2C)cnc1C1=CCC(N(C)C(=O)C(C)(C)C)CC1 (stereo not drawn) [Example D214] | 18.7 | 10
Cc1cc(NC(=O)c2nn(C)c3ccccc23)cnc1C1=CCC(N(C)C(=O)C(C)(C)C)CC1 (stereo not drawn) [Example D217] | 84.4 | 26.7
Cc1cc(NC(=O)c2cnn(-c3ccc(F)cc3)c2C)cnc1C1=CCC(N(C)C(=O)C(C)C)CC1 (stereo not drawn) [Example D219, 1-(4-Fluorophenyl)-N-{6-[4-(N-isobutyryl-N-methylamino)cyclohex-1-en-1-yl]-5-methylpyridin-3-yl}-5-methyl-1H-pyrazole-4-carboxamide] | 59.5 | 11.4
Cc1cc(NC(=O)c2cnn(-c3ccc(C(F)(F)F)cn3)c2C)cnc1C1=CCC(C(=O)N(C)C)CC1 (stereo not drawn) [Example D221, N-[6-(4-N,N-Dimethylcarbamoylcyclohex-1-en-1-yl)-5-methylpyridin-3-yl]-5-methyl-1-[5-(trifluoromethyl)pyridin-2-yl]-1H-pyrazole-4-carboxamide] | 31.4 | 20.1
Cc1cc(NC(=O)c2cnn(-c3ccc(C(F)(F)F)cn3)c2C)cnc1C1=CCC(NC(=O)C(C)(C)C)CC1 (stereo not drawn) [Example D224] | 141 | 19.5
Cc1cc(NC(=O)c2cnn(-c3ccc(C(F)(F)F)cn3)c2C)cnc1C1=CCC2(CC1)OCCO2 [Example D234] | 55.6 | 5.6
Cc1c(C(=O)Nc2ccc(C3CCC4(CC3)OCCO4)nc2)cnn1-c1ccc(C(F)(F)F)cn1 [Example D237] | 50.3 | 3.6
Cc1cc(NC(=O)c2cnn(-c3ccc(C(F)(F)F)cn3)c2C)cnc1C1CCC2(CC1)OCCO2 [Example D238] | 49.1 | 5
Cc1cc(NC(=O)c2cnn(-c3ccc(C(F)(F)F)cn3)c2C)cnc1C1=CCC(N(C)C(=O)OC(C)(C)C)CC1 (stereo not drawn) [Example D249, N-methyl-{4-[3-methyl-5-({5-methyl-1-[5-(trifluoromethyl)pyridin-2-yl]-1H-pyrazole-4-carbonyl}-amino)pyridin-2-yl]cyclohex-3-en-1-yl}carbamoic acid carbamic acid tert-butyl ester] | 131 | 36.9
Cc1c(C(=O)Nc2ccc([C@]3(C#N)CC[C@@](C)(O)CC3)nc2)cnn1-c1ccc(C(F)(F)F)cn1 [Example D254] | 146 | 6.6
Cc1cc(NC(=O)c2cnn(-c3ccc(F)cc3)c2C)cnc1C1=CCC(N(C)C(=O)C(C)(C)C)CC1 (stereo not drawn) [Example D260] | 4.02 | 16.8
Cc1ccc(-n2ncc(C(=O)Nc3cnc(C4=CCC(N(C)C(=O)C(C)(C)C)CC4)c(C)c3)c2C)nc1 (stereo not drawn) [Example D264] | 17.4 | 7.5
Cc1cc(NC(=O)c2cnn(-c3ccc(C(F)(F)F)cn3)c2C)cnc1C1=CCC(N(C)C(=O)C(F)(F)F)CC1 (stereo not drawn) [Example D265, 5-Methyl-N-(5-methyl-6-{4-[N-methyl-N-(2,2,2-trifluoroacetyl)amino]cyclohex-1-en-1-yl}pyridin-3-yl)-1-[5-(trifluoromethyl)pyridin-2-yl]-1H-pyrazole-4-carboxamide] | 4.91 | 35.9

SMILES | IC50 [1] [nM] | inhibition at 1 µM [2] [%]
Cc1cc(NC(=O)c2cnn(-c3ccc(C(F)(F)F)cn3)c2C)cnc1C1=CCC(C(=O)NC(C)(C)C)CC1 (stereo not drawn) [Example D268] | 155 | 9.8
Cc1cc(NC(=O)c2cnn(-c3ccc(C4CC4)cn3)c2C)cnc1C1=CCC(C(=O)NC(C)(C)C)CC1 (stereo not drawn) [Example D269] | 207 | 14.1
Cc1c(C(=O)Nc2ccc([C@]3(C#N)CC[C@]4(C=CCO4)CC3)nc2)cnn1-c1ccc(C(F)(F)F)cn1 [Example D270] | 55.8 | 0.5
CC[C@]1(O)CC[C@](C#N)(c2ccc(NC(=O)c3cnn(-c4ccc(Cl)cc4)c3C)cn2)CC1 [Example D275] | 55.3 | 14.4
CC[C@]1(O)CC[C@](C#N)(c2ccc(NC(=O)c3cnn(-c4ccc(C(F)(F)F)cn4)c3C)cn2)CC1 [Example D276] | 71.2 | 8.9
Cc1c(C(=O)Nc2ccc([C@]3(C#N)CC[C@]4(CCCO4)CC3)nc2)cnn1-c1ccc(C(F)(F)F)cn1 [Example D278, N-[6-(c-8-Cyano-r-1-oxaspiro[4.5]decan-8-yl)pyridin-3-yl]-5-methyl-1-[5-(trifluoromethyl)-pyridin-2-yl]-1H-pyrazole-4-carboxamide] | 50.2 | 13.6
Cc1ccc(-n2ncc(C(=O)Nc3ccc([C@]4(C#N)CC[C@]5(CCCO5)CC4)nc3)c2C)cc1 [Example D279] | 112 | 12.8
Cc1c(C(=O)Nc2cnc(C3=CCC(N4CCOCC4)CC3)c(F)c2)cnn1-c1ccc(C(F)(F)F)cn1 (stereo not drawn) [Example D282] | 174 | 11.9
Cc1c(C(=O)Nc2ccc([C@]3(C#N)CC[C@@H](N(C)C(=O)C(C)(C)C)CC3)nc2)cnn1-c1ccc(C(F)(F)F)cn1 [Example D288, N-(6-{r-1-Cyano-c-4-[N-(2,2-dimethylpropanoyl)-N-methylamino]cyclohexan-1-yl}pyridin-3-yl)-5-methyl-1-[5-(trifluoromethyl)pyridin-2-yl]-1H-pyrazole-4-carboxamide] | 5.38 | 5.9
Cc1c(C(=O)Nc2ccc([C@]3(C#N)CC[C@@H](N(C)C(=O)C(C)C)CC3)nc2)cnn1-c1ccc(C(F)(F)F)cn1 [Example D289, N-{6-[r-1-Cyano-c-4-(N-isobutyryl-N-methylamino)cyclohexan-1-yl]pyridin-3-yl}-5-methyl-1-[5-(trifluoromethyl)pyridin-2-yl]-1H-pyrazole-4-carboxamide] | 87.2 | 11.6
Cc1nc(-n2ncc(C(=O)Nc3ccc([C@]4(C#N)CC[C@@H](N5CCOCC5)CC4)nc3)c2C)ccc1C(F)(F)F [Example D299] | 112 | 40.6
CC(C)c1c(C(=O)Nc2ccc([C@]3(C#N)CC[C@@H](N4CCOCC4)CC3)nc2)cnn1-c1ccc(C(F)(F)F)cn1 [Example D300, N-{6-[r-1-Cyano-c-4-(morpholin-4-yl)cyclohexyl]pyridin-3-yl}-5-isopropyl-1-[5-(trifluoromethyl)pyridin-2-yl]-1H-pyrazole-4-carboxamide] | 182 | 26.1
Cc1c(C(=O)Nc2ccc(C3=CCC(N4CCOCC4)CC3)nc2)cnn1-c1ccc(C(F)(F)F)cn1 (stereo not drawn) [Example E1, 5-Methyl-N-{6-[4-(morpholin-4-yl)cyclohex-1-en-1-yl]pyridin-3-yl}-1-[5-(trifluoromethyl)-pyridin-2-yl]-1H-pyrazole-4-carboxamide mesylate] | 62.3 | 34.7
Cc1c(C(=O)Nc2ccc([C@]3(O)CC[C@@H](N4CCOCC4)CC3)nc2)cnn1-c1ccc(C(F)(F)F)cn1 [Example E2, N-{6-[r-1-Hydroxy-c-4-(morpholin-4-yl)cyclohexyl]pyridin-3-yl}-5-methyl-1-[5-(trifluoromethyl)pyridin-2-yl]-1H-pyrazole-4-carboxamide] | 179 | 24.4
Cc1c(C(=O)Nc2ccc(C3(C#N)CCC4(CC3)OCCO4)nc2)cnn1-c1ccc(C(F)(F)F)cc1 [Example E6] | 28.5 | 36.9
N#CC1(c2ccc(NC(=O)c3ccc(-c4ccc(Cl)cc4)o3)cn2)CCC2(CC1)OCCO2 [Example E18] | 50.4 | 8.8
